Read-outs that look alike come from different tables or passages of the source.

This note sets out measurements from patent US12612424B2, “HPK1 inhibitors and uses thereof” (Regor Pharmaceuticals, Inc., priority 2019, dated 2026).

One assay has as its target T1, JAK3 (Homo sapiens, UniProt P52333).
T1 construct: purchased Thermo fisher PV3855
Put plainly: JAK3 biochemical assay (ADP-GLO Kinase Assay). Particulars: for JAKs/HPK1 IC50 Ratio, B* / JAKs/HPK1 IC50 Ratio, N*: ratio of JAK3 IC50 to HPK1 IC50; for JAKs/HPK1 IC50 Ratio, B*: first testing facility; for JAKs/HPK1 IC50 Ratio, N*: second testing facility. The procedure: Biology Example 4 JAK3 Biochemical Assay
This example used the ADP-GLO™ Kinase Assay to measure the effect of potential HPK1 inhibitor compounds on JAK3 kinase activity. An exemplary experimental setting is described below, though minor adjustments can be made in individual assays.
3. Procedures • 1. Prepare JAK3 kinase buffer • Freshly adding DTT and BSA into Buffer (Final Conc.: 40 mM Tris pH7.5; 20 mM MgCl2, 0.1 mg/ml BSA, 50 μM DTT).
• 2. Compounds Preparation • For tested compounds: compounds were diluted to 1 mM, by mixing 5 μL of 10 mM compound stocks to 45 μL DMSO. The compounds solutions were then serially diluted 3-fold for 10 doses. The top compound concentration was 1 mM (100×), DMSO concentration was 100%. • 50 nL of each of 10 doses of diluted compound were added to 384-well assay plate (Corning #4512) by ECHO. • For positive control, 50 nL of 1 mM reference compound were added to 384-well assay plate (Corning #4512) by ECHO. • For negative control: 50 nL of DMSO was transferred into 384-well assay plate as a negative control. • The assay plate was centrifuged at 1,500 rpm for 1 minute. • 3. Compounds were Transferred by ECHO Following the Layout Below: • Reference and test compounds 1-15: serial 3-fold dilution from 10 μM to 0.508 nM (10 doses); negative control is 0.78 ng JAK3, 4 μM ATP & 0.2 μg/μL poly, 1% DMSO; positive control is the top dose of the reference compound, 0.78 ng JAK3, 0.2 μg/μL Poly(E4Y1), 4 μMATP, 1% DMSO. • 4. Add 2.5 μL/well of 2×JAK3 working solution using pipette (Thermo, 30 μL multi-channel), Centrifuge at 1,500 rpm for 1 minute. • 5. Add 2.5 μL/well of 2×ATP-Poly(E4Y1) working mixture using pipette (Thermo, 30 μL multi-channel), Centrifuge at 1,500 rpm for 1 minute. • 6. Incubate the assay plate at 25° C. for 60 min. • 7. Add 5 μL/well ADP-GLO™ Reagent by BRAVO to stop the kinase reaction and deplete the unconsumed ATP after 1 hour. Centrifuge at 1,500 rpm for 1 minute. Incubate at 25° C. for 40 min. • 8. Add 10 uL of Kinase Detection Reagent by BRAVO to convert ADP to ATP. Centrifuge at 1,500 rpm for 1 minute. Incubate at 25° C. for 40 min. • 9. Record luminescence signal on an Envision plate reader (384-USL). • 10. Process data using XL-fit. Inhibition %=[1-(test well−Negative control)/(positive control−Negative control)]*100%. 5. Data Analysis
The percent (%) inhibition at each concentration of compound is calculated based on and relative to the signal in the Negative and Positive control wells contained within each assay plate. The Negative control wells served as 0% inhibition, and the Positive control wells served as 100% inhibition. The concentrations and % inhibition values for tested compounds are plotted and the concentration of compound required for 50% inhibition (IC50) is determined with a Three-parameter logistic dose response equation. The endpoint value (IC50) for the reference peptide/compound is evaluated in each experiment as a quality control measure. If the endpoint value was within 3-fold of the expected value then the experiment was deemed acceptable.

The next assay deals with HPK1 (Homo sapiens, UniProt Q92918). Put plainly: HPK1 biochemical assay (ADP-GLO Kinase Assay). The text has this: IC50 values of any compounds can be determined accordingly over a range of inhibitor concentrations. In addition, the inhibitory effect of the compounds can also be assess using a biological assay, to determine the effect of the compounds on cytokine secretion by T cells following TCR and CD28 stimulation.
HPK1, sequence (Q92918 whole entry): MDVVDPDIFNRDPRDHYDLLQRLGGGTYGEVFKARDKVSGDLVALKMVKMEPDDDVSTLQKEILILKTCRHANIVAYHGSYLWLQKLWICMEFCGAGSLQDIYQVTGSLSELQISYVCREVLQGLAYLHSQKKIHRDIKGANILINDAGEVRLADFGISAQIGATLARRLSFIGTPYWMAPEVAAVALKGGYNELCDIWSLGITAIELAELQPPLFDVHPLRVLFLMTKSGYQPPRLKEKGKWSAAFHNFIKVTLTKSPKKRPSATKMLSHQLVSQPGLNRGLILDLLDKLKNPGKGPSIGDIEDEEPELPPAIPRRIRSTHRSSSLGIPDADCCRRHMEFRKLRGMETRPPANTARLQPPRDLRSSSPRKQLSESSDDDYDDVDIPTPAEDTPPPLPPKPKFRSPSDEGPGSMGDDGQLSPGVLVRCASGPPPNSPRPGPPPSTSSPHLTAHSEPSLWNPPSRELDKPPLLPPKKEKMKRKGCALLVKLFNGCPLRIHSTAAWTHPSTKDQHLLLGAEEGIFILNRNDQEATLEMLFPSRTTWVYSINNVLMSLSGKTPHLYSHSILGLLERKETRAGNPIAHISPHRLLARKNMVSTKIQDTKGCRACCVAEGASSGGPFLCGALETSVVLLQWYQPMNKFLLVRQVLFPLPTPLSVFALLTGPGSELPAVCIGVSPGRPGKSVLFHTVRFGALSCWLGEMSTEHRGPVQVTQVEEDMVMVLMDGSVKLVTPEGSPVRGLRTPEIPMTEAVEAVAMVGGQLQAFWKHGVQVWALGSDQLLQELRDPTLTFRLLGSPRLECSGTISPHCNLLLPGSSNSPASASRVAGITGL
Biology Example 1 HPK1 Biochemical Assay
This example used the ADP-GLO™ Kinase Assay to measure the effect of potential HPK1 inhibitor compounds on HPK1 kinase activity.
The ADP-GLO™ Kinase Assay (Promega Corp., Madison, WI) measures ADP formed from a kinase reaction. According to the manufacture, the ADP formed in a kinase assay is first converted into ATP, which is then used to generate light in a luciferase reaction. The luminescence generated correlates with kinase activity. An exemplary experimental setting is described below, though minor adjustments can be made in individual assays.
Serial 3-fold dilution of compounds from 10 μM (top concentration) to 0.508 nM (lowest concentration). Positive control is 10 μM Reference+enzyme+substrate. Negative control is 1% DMSO+enzyme+substrate.
• 1. Buffer Preparation • 40 mM Tris pH7.5; 20 mM MgCl2, 0.1 mg/ml BSA, 50 μM DTT Buffer Stock
Add 20 mL 1M Tris and 10 mL 1M MgCl2 to 470 mL ddH2O to get buffer stock, and stock at RT. • 2. Preparing Fresh 1* Assay Buffer
• 3. Compounds Preparation • 1) The compounds were diluted to 1 mM, by mixing 10 μL of 10 mM respective compound stocks with 90 μL of DMSO. • 2) The compounds were then diluted 3-fold for 10 doses (5 μL to 10 μL dilution) by BRAVO. The top compound conc. was 1 mM (100×), DMSO Conc. was 100%. • 3) Transfer 100 nL of each diluted compound sample to 384-well plate (Corning-4512) by ECHO. • 4) Centrifuge the plate at 1,500 rpm for 1 minute. • 4. Preparation of 2×ATP-MBP Mixture: • 20 μM ATP, 0.2 μg/μL MBP in Kinase Buffer (final concentration: 10 μM ATP, 0.1 MBP)
• 5. Preparation of 2×HPK1 working solution with assay buffer. • HPK1 final concentration was 0.6 ng/μL. […] Incubate at 25° C. for 40 min. • 11. Record luminescence signal on an Envision plate reader (384-CTG). 5. Data Analysis
The percent (%) inhibition at each concentration of compound is calculated based on and relative to the signal in the High and Low control wells contained within each assay plate. […] The concentrations and % inhibition values for tested compounds were plotted and the concentration of compound required for 50% inhibition (IC50) was determined with a Three-parameter logistic dose response equation. The endpoint value (IC50) for the reference peptide/compound was evaluated in each experiment as a quality control measure. If the endpoint value was within 3-fold of the expected value, then the experiment was deemed acceptable.

Where [1] appears, read: B*: testing performed in a first testing facility, read-out: JAK3 IC50 (nM) Relative, B*.
[2] abbreviates: N*: testing performed in a second testing facility, read-out: JAK3 IC50 (nM) Relative, N*.
Where [3] appears, read: B*: testing performed in a first testing facility, read-out: HPK1 IC50 (nM) Relative, B*.
Setting [4] is: N*: testing performed in a second testing facility, read-out: HPK1 IC50 (nM) Relative, N*.

T1 sequence (P52333 781-1124 limits assumed): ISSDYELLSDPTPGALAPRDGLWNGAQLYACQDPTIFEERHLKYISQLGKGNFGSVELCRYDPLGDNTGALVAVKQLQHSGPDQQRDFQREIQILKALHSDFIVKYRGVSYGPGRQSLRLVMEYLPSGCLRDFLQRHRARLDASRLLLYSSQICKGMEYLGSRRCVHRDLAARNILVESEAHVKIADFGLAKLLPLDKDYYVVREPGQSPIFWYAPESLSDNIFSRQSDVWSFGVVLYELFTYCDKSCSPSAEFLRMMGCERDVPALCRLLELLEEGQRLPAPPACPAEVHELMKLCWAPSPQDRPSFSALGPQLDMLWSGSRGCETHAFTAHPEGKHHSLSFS

As for `CCc1c[nH]c2ncc(-c3ccc(C)c(P(C)(C)=O)c3)cc12` [Example 50, (5-(3-Ethyl-1H-pyrrolo[2,3-b]pyridin-5-yl)-2-methylphenyl)dimethylphosphine oxide], the half-maximal inhibitory concentration (IC50) on JAK3 (setting [1]) is above 1000 nM; at JAK3 (setting [2]) it was above 1000 nM; on HPK1 (setting [3]) it was at most 100 nM; on HPK1 (setting [4]), at most 100 nM. Besides, at JAK3, the “JAKs/HPK1 IC50 Ratio, B*” value is 163. For the same compound, the “JAKs/HPK1 IC50 Ratio, N*” value on JAK3 worked out at 101.

Regarding `COc1cc2c(cc1Nc1ncc(Cl)c(-n3cc(C(C(=O)O)C(F)(F)F)c4ccccc43)n1)CN(C)CC2` (centres unmarked) [Example 144], the IC50 on JAK3 (setting [1]) was above 1000 nM; at HPK1 (setting [3]) it was at most 100 nM. Further, at JAK3, the “JAKs/HPK1 IC50 Ratio, B*” value was determined as 250.

On to `CCc1c[nH]c2ncc(-c3ccc(N4CCCC4=O)c(P(C)(C)=O)c3)cc12` [Example 66, 1-(2-(Dimethylphosphoryl)-4-(3-ethyl-1H-pyrrolo[2,3-b]pyridin-5-yl)phenyl)pyrrolidin-2-one], for which the half-maximal inhibitory concentration (IC50) is above 1000 nM on JAK3 (setting [1]) and 100 to 500 nM at HPK1 (setting [3]). Moreover, the “JAKs/HPK1 IC50 Ratio, B*” value at JAK3 was found to be 3.

For the compound `COc1cc2c(cc1Nc1ncc(Cl)c(N3CC(C)(C(=O)O)c4ccccc43)n1)CNCC2` (centres unmarked) [Example 127, 1-(5-Chloro-2-((6-methoxy-1,2,3,4-tetrahydroisoquinolin-7-yl)amino)pyrimidin-4-yl)-3-methylindoline-3-carboxylic acid], the IC50 on JAK3 (setting [1]) and on HPK1 (setting [3]) was at most 100 nM each time. At JAK3, the “JAKs/HPK1 IC50 Ratio, B*” value was determined as 4.

Regarding `CCC(CC)COC(=O)Cc1cn(-c2nc(Nc3cc4c(cc3OC)CCN(C)C4)ncc2Cl)c2ccccc12` [Example 131, 2-Ethylbutyl 2-(1-(5-chloro-2-((6-methoxy-2-methyl-1,2,3,4-tetrahydroisoquinolin-7-yl)amino)pyrimidin-4-yl)-1H-indol-3-yl)acetate], the IC50 at JAK3 (setting [1]) was above 1000 nM; at HPK1 (setting [3]) it was 100 to 500 nM. Moreover, at JAK3, the “JAKs/HPK1 IC50 Ratio, B*” value was above 82.

Take `CCc1c[nH]c2ncc(-c3ccc(C(=O)OC)c(P(C)(C)=O)c3)cc12` [Example 72, Methyl 2-(dimethylphosphoryl)-4-(3-ethyl-1H-pyrrolo[2,3-b]pyridin-5-yl)benzoate]: the IC50 at JAK3 (setting [1]) is above 1000 nM; on HPK1 (setting [3]) it was 100 to 500 nM. For the same compound, on JAK3, the “JAKs/HPK1 IC50 Ratio, B*” value is 11.

Turning to `COc1cc2c(cc1Nc1ncc3ncn(-c4ccccc4)c3n1)CN(C)CC2` [Example 43, 6-Methoxy-2-methyl-N-(9-phenyl-9H-purin-2-yl)-1,2,3,4-tetrahydroisoquinolin-7-amine], the 50% inhibitory concentration (IC50) at JAK3 (setting [2]), at HPK1 (setting [3]) and on HPK1 (setting [4]) was above 1000 nM in each case. The “JAKs/HPK1 IC50 Ratio, N*” value at JAK3 is given as above 10.

Turning to `CCc1c(Cl)[nH]c2ncc(-c3ccc(N)c(P(C)(C)=O)c3)cc12` [Example 69, (2-Amino-5-(2-chloro-3-ethyl-1H-pyrrolo[2,3-b]pyridin-5-yl)phenyl)dimethylphosphine oxide], the IC50 at JAK3 (setting [2]) is 500 to 1000 nM; on HPK1 (setting [3]), at most 100 nM; at HPK1 (setting [4]) it was at most 100 nM. The “JAKs/HPK1 IC50 Ratio, N*” value at JAK3 is on record as 52.

Regarding `CCc1c[nH]c2ncc(-c3ccc(CO)c(P(C)(C)=O)c3)cc12` [Example 73, (5-(3-Ethyl-1H-pyrrolo[2,3-b]pyridin-5-yl)-2-(hydroxymethyl)phenyl)dimethylphosphine oxide], the figures for the 50% inhibitory concentration (IC50) on JAK3 (setting [1]) and at HPK1 (setting [3]) were 500 to 1000 nM and 100 to 500 nM, respectively. The “JAKs/HPK1 IC50 Ratio, B*” value at JAK3 is 5.

In the case of `CC(C)c1c[nH]c2ncc(-c3ccc(N)c(P(C)(C)=O)c3)cc12` [Example 77, (2-Amino-5-(3-isopropyl-1H-pyrrolo[2,3-b]pyridin-5-yl)phenyl)dimethylphosphine oxide], the concentration for half-maximal inhibition (IC50) at JAK3 (setting [1]) is above 1000 nM; on HPK1 (setting [3]), at most 100 nM. The “JAKs/HPK1 IC50 Ratio, B*” value on JAK3 is 76.

On to `CCc1c[nH]c2ncc(-c3ccc(N)c(P(C)(C)=O)n3)cc12` [Example 75, (3-Amino-6-(3-ethyl-1H-pyrrolo[2,3-b]pyridin-5-yl)pyridin-2-yl)dimethylphosphine oxide], for which the results for the concentration for half-maximal inhibition (IC50) at JAK3 (setting [1]) and on HPK1 (setting [3]) were above 1000 nM and at most 100 nM, respectively. The “JAKs/HPK1 IC50 Ratio, B*” value at JAK3 stood at 59.

On to `COc1cc2c(cc1Nc1ncc3cc(C(=O)O)n(-c4ccccc4)c3n1)CN(C)CC2` [Example 165, 2-((6-Methoxy-2-methyl-1,2,3,4-tetrahydroisoquinolin-7-yl)amino)-7-phenyl-7H-pyrrolo[2,3-d]pyrimidine-6-carboxylic acid], for which the IC50 at JAK3 (setting [1]) was above 1000 nM; on HPK1 (setting [3]) it was at most 100 nM. Besides, the “JAKs/HPK1 IC50 Ratio, B*” value at JAK3 is listed as 421.

As for `CCc1c[nH]c2ncc(-c3ccc(NC(C)=O)c(P(C)(C)=O)c3)cc12` [Example 58, N-(2-(dimethylphosphoryl)-4-(3-ethyl-1H-pyrrolo[2,3-b]pyridin-5-yl)phenyl)acetamide], the IC50 at JAK3 (setting [1]) is 100 to 500 nM; at HPK1 (setting [3]) it was at most 100 nM. The “JAKs/HPK1 IC50 Ratio, B*” value on JAK3 is 4.

Consider `COc1cc2c(cc1Nc1ncc(Cl)c(N3CCc4c(OC)cccc43)n1)CN(C)CC2` [Example 89, N-(5-chloro-4-(4-methoxyindolin-1-yl)pyrimidin-2-yl)-6-methoxy-2-methyl-1,2,3,4-tetrahydroisoquinolin-7-amine], for which the IC50 on JAK3 (setting [1]) was above 1000 nM; on HPK1 (setting [3]), at most 100 nM. The “JAKs/HPK1 IC50 Ratio, B*” value at JAK3 was determined as 944.

Consider `COc1ccc2c(c1)C(C(=O)O)CN2c1nc(Nc2cc3c(cc2OC)CCN(C)C3)ncc1Cl` (centres unmarked) [Example 106, 1-(5-Chloro-2-((6-methoxy-2-methyl-1,2,3,4-tetrahydroisoquinolin-7-yl)amino)pyrimidin-4-yl)-5-methoxyindoline-3-carboxylic acid], for which the 50% inhibitory concentration (IC50) on JAK3 (setting [1]) and at HPK1 (setting [3]) was at most 100 nM in each case. Moreover, on JAK3, the “JAKs/HPK1 IC50 Ratio, B*” value is 11.
